Laboratory results: ChEMBL document CHEMBL1128902, “Selectively deoxygenated sulfated tetrasaccharides as probes for the investigation of smooth muscle cell antiproliferative activity” (1996)

Organism: Rattus norvegicus
Assay: Antiproliferative activity against rat smooth muscle cell (SMC) expressed as relative activity compared to heparin; ri is relative inhibitory activity
Format: functional

For `C[C@@H]1O[C@H](O[C@H]2[C@H](O)[C@H](O)[C@H](O[C@H]3[C@H](O)[C@H](O)[C@@H](O[C@H]4O[C@H](CO)[C@@H](O)[C@@H](O)[C@@H]4O)O[C@H]3CO)O[C@H]2CO)[C@@H](O)[C@@H](O)[C@@H]1O`, which Relative inhibitory activity is on record?
Its Relative inhibitory activity is 0.6.

How did the Relative inhibitory activity turn out when `OC[C@H]1O[C@H](O[C@H]2O[C@H](CO)[C@@H](O[C@H]3O[C@H](CO)[C@@H](O[C@H]4O[C@H](CO)[C@@H](O)[C@H](O)[C@H]4O)[C@H](O)[C@H]3O)[C@H](O)[C@H]2O)[C@H](O)[C@@H](O)[C@@H]1O` was run?
The Relative inhibitory activity was 0.9.
